Laboratory results published in ChEMBL document CHEMBL1154731, “Theoretical and structural analysis of the active site of the transcriptional regulators LasR and TraR, using molecular docking methodology for identifying potential analogues of acyl homoserine lactones (AHLs) with anti-quorum sensing activity” (Eur J Med Chem, 2010).

Tests used:
[1] = target: T1, Transcriptional activator protein TraR (Agrobacterium tumefaciens, UniProt P33905); assay: Inhibition of Agrobacterium tumefaciens TraR
T1 sequence (P33905 whole entry): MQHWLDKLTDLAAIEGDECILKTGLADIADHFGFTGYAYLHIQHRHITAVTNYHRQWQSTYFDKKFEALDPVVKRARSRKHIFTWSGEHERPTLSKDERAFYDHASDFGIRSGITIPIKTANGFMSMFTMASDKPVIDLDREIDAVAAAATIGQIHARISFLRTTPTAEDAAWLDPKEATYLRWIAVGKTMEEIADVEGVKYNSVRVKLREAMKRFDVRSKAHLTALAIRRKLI

[2] = target: T2, Transcriptional activator protein LasR (Pseudomonas aeruginosa (strain ATCC 15692 / PAO1 / 1C / PRS 101 / LMG12228), UniProt P25084); assay: Inhibition of Pseudomonas aeruginosa LasR
T2 sequence (P25084 whole entry): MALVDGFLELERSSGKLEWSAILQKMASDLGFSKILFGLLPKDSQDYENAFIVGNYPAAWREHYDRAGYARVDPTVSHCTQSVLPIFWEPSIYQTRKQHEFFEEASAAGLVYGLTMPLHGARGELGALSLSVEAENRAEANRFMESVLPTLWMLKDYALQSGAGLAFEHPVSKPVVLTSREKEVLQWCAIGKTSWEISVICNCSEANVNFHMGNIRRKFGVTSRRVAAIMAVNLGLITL

IC50 [1] | IC50 [2] | Compound
0.5 µM | 53.6 µM | O=C(CC(=O)N[C@H]1CCOC1=O)Cc1ccccc1
1.1 µM | 14.8 µM | O=C(CCCc1c[nH]c2ccccc12)N[C@H]1CCOC1=O
1 µM | 33.1 µM | O=C(CC1C=CCC1)N[C@H]1CCOC1=O (stereo partly drawn)
0.13 µM | 51.5 µM | CCCCCCC(=O)N[C@H]1CCOC1=O
